Results: patent US6756382B2, “Amide substituted imidazoquinolines” (3M Innovative Properties Company, priority 1999, dated 2004)

Columns and labels:
interferon (α) = test: Cytokine induction in human cells: interferon secreted by PBMCs, ELISA; type: cell-based; settings: PBMC, incubated 18 to 24 hours, interferon determined by ELISA, read-out: Lowest Effective Concentration (μM) Interferon
Procedure, shortened: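 Human donor PBMCs at 1.5-2×10^6 cells/mL final in RPMI with 10% FBS, exposed to serially diluted compound (≤1% DMSO) for 18–24 h at 37 °C, 5% CO2. Supernatant interferon (α) measured by ELISA; value is lowest concentration inducing interferon.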

[1] = test system: tumor necrosis factor (α); test: Cytokine induction in human cells: tumor necrosis factor (α) secreted by PBMCs, ELISA; type: cell-based; settings: PBMC, incubated 18 to 24 hours, TNF determined by ELISA, read-out: Lowest Effective Concentration (μM) Tumor Necrosis Factor
Procedure, shortened: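 Human donor PBMCs at final 1.5-2×10^6 cells/mL in RPMI with 10% FBS incubated 18 to 24 h at 37° C. with serially diluted compound, DMSO at most 1% final. Supernatant TNF-α measured by ELISA; value is the lowest concentration inducing TNF.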

melting point | Compound | minimal effective concentration (interferon (α)) [µM] | minimal effective concentration [1] [µM]
104 to 106 °C | Nc1nc2ccccc2c2c1ncn2CCCCNC(=O)CCCCC1SCC2NC(=O)NC21 (stereo not drawn) [Example 25, N^1-[4-(4-Amino-1H-imidazo[4,5-c]quinolin-1-yl)butyl]-5-(2-oxoperhydrothieno[3,4-d]imidazol-4-yl)pentanamide] | 3.33 | > 30
95 to 96 °C | CCCCc1nc2c(N)nc3ccccc3c2n1CCNC(=O)CCCCC1SCC2NC(=N)NC21 (stereo not drawn) [Example 26, N^1-[2-(4-Amino-2-butyl-1H-imidazo[4,5-c]quinolin-1-yl)ethyl]-5-(2-iminoperhydrothieno[3,4-d]imidazol-4-yl)pentanamide] | 0.37 | 10
169 °C | Nc1nc2ccccc2c2c1ncn2CCNC(=O)CCCCC1SCC2NC(=O)NC21 (stereo not drawn) [Example 27, N^1-[2-(4-Amino-1H-imidazo[4,5-c]quinolin-1-yl)ethyl]-5-(2-oxoperhydrothieno[3,4-d]imidazol-4-yl)pentanamide] | > 30 | > 30
124 to 126 °C | CCCCc1nc2c(N)nc3ccccc3c2n1CCNC(=O)CCCCC1SCC2NC(=O)NC21 (stereo not drawn) [Example 28, N^1-[2-(4-Amino-2-butyl-1H-imidazo[4,5-c]quinolin-1-yl)ethyl]-5-(2-oxoperhydrothieno[3,4-d]imidazol-4-yl)pentanamide] | 0.12 | > 30
219 °C (dec.) | CCOc1ccc2ccccc2c1C(=O)NCCCCn1cnc2c(N)nc3ccccc3c21 [Example 31, N^1-[4-(4-Amino-1H-imidazo[4,5-c]quinolin-1-yl)butyl]-2-ethoxy-1-naphthamide] | 1.11 | > 30
222.8 to 225.3 °C | N#Cc1ccc(C(=O)NCCCCn2cnc3c(N)nc4ccccc4c32)cc1 [Example 32, N^1-[4-(4-Amino-1H-imidazo[4,5-c]quinolin-1-yl)butyl]-4-cyanobenzamide] | 3.33 | > 30
200 to 201 °C (dec.) | N#Cc1cccc(C(=O)NCCCCn2cnc3c(N)nc4ccccc4c32)c1 [Example 33, N^1-[4-(4-Amino-1H-imidazo[4,5-c]quinolin-1-yl)butyl]-3-cyanobenzamide] | 0.37 | > 30
215.4 °C (dec.) | Nc1nc2ccccc2c2c1ncn2CCCCNC(=O)c1ccc(-c2ccccc2)cc1 [Example 34, N^1-[4-(4-Amino-1H-imidazo[4,5-c]quinolin-1-yl)butyl]-4-phenylbenzamide] | > 30 | 3.33
61.5 °C (dec.) | Nc1nc2ccccc2c2c1ncn2CCCCNC(=O)COc1ccccc1 [Example 35, N^1-[4-(4-Amino-1H-imidazo[4,5-c]quinolin-1-yl)butyl]-2-phenoxyacetamide] | 1.11 | > 30
163 to 164 °C | CCCCC(CC)C(=O)NCCCCn1cnc2c(N)nc3ccccc3c21 (stereo not drawn) [Example 36, N^1-[4-(4-Amino-1H-imidazo[4,5-c]quinolin-1-yl)butyl]-2-ethylhexanamide] | 1.11 | 10
105 to 107 °C | Nc1nc2ccccc2c2c1ncn2CCCCNC(=O)c1cccc(Oc2ccccc2)c1 [Example 39, N^1-[4-(4-Amino-1H-imidazo[4,5-c]quinolin-1-yl)butyl]-3-phenoxybenzamide] | 3.33 | > 30
85 to 87.5 °C | CC(Oc1ccccc1)C(=O)NCCCCn1cnc2c(N)nc3ccccc3c21 (stereo not drawn) [Example 41, N^1-[4-(4-Amino-1H-imidazo[4,5-c]quinolin-1-yl)butyl]-2-phenoxypropanamide] | 1.11 | > 30
257 °C (dec.) | Nc1nc2ccccc2c2c1ncn2CCCCNC(=O)c1ccc2ccccc2c1 [Example 43, N^2-[4-(4-Amino-1H-imidazo[4,5-c]quinolin-1-yl)butyl]-2-naphthamide] | 0.12 | > 30
175 to 177 °C | COc1ccc(C(=O)NCCCCn2cnc3c(N)nc4ccccc4c32)c(OC)n1 [Example 44, N^3-[4-(4-Amino-1H-imidazo[4,5-c]quinolin-1-yl)butyl]-2,6-dimethoxynicotnamide] | 1.11 | > 30
91 to 93 °C | Nc1nc2ccccc2c2c1ncn2CCCCNC(=O)c1cccc2cccnc12 [Example 45, N^8-[4-(4-Amino-1H-imidazo[4,5-c]quinolin-1-yl)butyl]-8-quinolinecarboxamide] | 3.33 | > 30
172 to 173 °C | CC(C)Cc1ccc(C(C)C(=O)NCCCCn2cnc3c(N)nc4ccccc4c32)cc1 (stereo not drawn) [Example 46, N^1-[4-(4-Amino-1 H-imidazo[4,5-c]quinolin-1-yl)butyl]-2-(4-isobutylphenyl)propanamide] | > 30 | 10
199 to 200 °C | COCCc1nc2c(N)nc3ccccc3c2n1CCCCNC(=O)c1cc2ccccc2cn1 [Example 181, N-{4-[4-amino-2-(2-methoxyethyl)-1H-imidazo[4,5-c]quinolin-1-yl]butyl}isoquinoline-3-carboxamide] | 0.01 | 1.11
114 to 116 °C | COCCc1nc2c(N)nc3ccccc3c2n1CCCCNC(=O)c1cnc2ccccc2c1 [Example 182, N-{4-[4-amino-2-(2-methoxyethyl)-1H-imidazo[4,5-c]quinolin-1-yl]butyl}quinoline-3-carboxamide] | 0.01 | 0.01
85 to 87 °C | COCCc1nc2c(N)nc3ccccc3c2n1CCCCNC(=O)c1cnc2ccccc2n1 [Example 183, N-{4-[4-amino-2-(2-methoxyethyl)-1H-imidazo [4,5-c]quinolin-1-yl]butyl}quinoxaline-2-carboxamide] | 0.01 | 0.04
149.5 to 151.3 °C | CCCCc1nc2c(N)nc3ccccc3c2n1CCCCCCCCNC(=O)c1ccccc1 [Example 186, N-[8-(4-amino-2-butyl-1H-imidazo[4,5-c]quinolin-1-yl)octyl]benzamide] | 0.04 | 0.12
133.4 to 137.5 °C | COCCc1nc2c(N)nc3ccccc3c2n1CCCCCCCCNC(=O)c1ccccc1 [Example 187, N-{8-[4-amino-2-(2-methoxyethyl)-1H-imidazo[4,5-c]quinolin-1-yl]octyl}benzamide] | 0.01 | 0.01
189.4 to 190 °C | CCCCc1nc2c(N)nc3ccccc3c2n1CCCNC(=O)c1ccccc1 [Example 189, N-[3-(4-amino-2-butyl-1H-imidazo[4,5-c]quinolin-1-yl)propyl]benzamide] | 0.04 | 0.12
